One assay relates to rats fed galactose. The experiment in a line: Galactosemic rat experiments. It counts as in vivo, rat (male, Sprague-Dawley). An excerpt:
(§1) The aldose reductase inhibiting property of the compounds of this invention and the utilization of the compounds in preventing, diminishing and alleviating diabetic complications are demonstrable in experiments using galactosemic rats, see Dvornik et al, Science, 182, 1146 (1973). Such experiments are exemplified hereinbelow after the listing of the following general comments pertaining to these experiments.
(§2) (a) Four or more groups of six male rats, 50-70 g, Sprague-Dawley strain, were used. The first group, the control group, was fed a mixture of laboratory chow (rodent Laboratory Chow, Purina) and glucose at 20% (w/w %) concentration. The untreated galactosemic group and the drug-treated groups were fed a similar diet in which galactose is substituted for glucose. The test compound was either admixed to the diet or administered by gavage. In experiments involving compound administration in the diet, the average dose administered was calculated from the actual food intake of the animals in each group. The concentration of galactose in the diet of the treated groups was the same as that for the untreated galactosemic group.
(b) After four days, the animals were killed by decapitation. […] Both tissues when frozen can be kept up to two weeks before being analyzed for galactitol. […]

Assay [1] has as its system sciatic nerve (galactitol accumulation). The experiment in a line: Galactitol (dulcitol) accumulation in sciatic nerve of galactosemic rats. It counts as in vivo, rat (male, Sprague-Dawley). Particulars: four days.
Source text: Such experiments are exemplified hereinbelow after the listing of the following general comments pertaining to these experiments.
as §2, with “The untreated galactosemic group and the drug-treated groups were fed a similar diet in which galactose is substituted for glucose.” left out
(§3) (b) After four days, the animals were killed by decapitation. The eyeballs were removed and punctured with a razor blade; the freed lenses were rolled gently on filter paper and weighed. The sciatic nerves were dissected as completely as possible and weighed. Both tissues when frozen can be kept up to two weeks before being analyzed for galactitol.
(§4) (c) The polyol determination was performed by a modification of the procedure of M. Kraml and L. Cosyns, Clin. Biochem., 2,373 (1969). Only two minor reagent changes were made: (a) The rinsing mixture was an aqueous 5% (w/v) trichloroacetic acid solution and (b) the stock solution was prepared by dissolving 25 mg of dulcitol in 100 mL of an aqueous trichloroacetic acid solution. [N.B.: For each experiment the average value found in the tissue from rats fed the glucose diet was subtracted from the individual values found in the corresponding tissue in galactose-fed rats to obtain the amount of polyol accumulated.] […] In the present case the procedure of Hayman and Kinoshita was modified in that the final chromatography step was omitted in the preparation of the enzyme from bovine lens.
(§5) The figures under L, N, and D represent the percentage decrease of galactitol accumulation in the tissues of the lens, sciatic nerve, and diaphragm, respectively, for treated rats as compared to untreated rats.

Another assay concerns the target T1, aldose reductase (Bos taurus, UniProt P16116).
T1 construct: preparation of the enzyme from bovine lens; from tissue; host or cells: bovine lens
The experiment in a line: Aldose reductase inhibition in vitro (enzyme preparation from bovine lens, modified Hayman and Kinoshita procedure). It counts as biochemical. Particulars: for inhibition at 10 µM: 10^-5 M; for inhibition at 10 µM / inhibition at 1 µM: read-out: % Inhibition IN VITRO; for inhibition at 0.1 µM: 10^-7 M. Here is the method:
as §4, with “Only” for “(c) The polyol determination was performed by a modification of the procedure of M. Kraml and L. Cosyns, Clin. Biochem., 2,373 (1969). Only”

Assay [2] concerns lens (galactitol accumulation). The experiment in a line: Galactitol (dulcitol) accumulation in lens of galactosemic rats. It counts as in vivo, rat (male, Sprague-Dawley). Particulars: 48 mg/kg, four days.
Source text: as §1, §2, §3
(c) The polyol determination was performed by a modification of the procedure of M. Kraml and L. Cosyns, Clin. Biochem., 2,373 (1969). Only two minor reagent changes were made: (a) The rinsing mixture was an aqueous 5% (w/v) trichloroacetic acid solution and (b) the stock solution was prepared by dissolving 25 mg of dulcitol in 100 mL of an aqueous trichloroacetic acid solution. [N.B.: For each experiment the average value found in the tissue from rats fed the glucose diet was subtracted from the individual values found in the corresponding tissue in galactose-fed rats to obtain the amount of polyol accumulated.] The aldose reductase inhibiting effects of the compounds of formula (I) were also tested by employing an in vitro testing procedure similar to that described by S. Hayman and J. H. Kinoshita, J. Biol. Chem., 240,877 (1965). In the present case the procedure of Hayman and Kinoshita was modified in that the final chromatography step was omitted in the preparation of the enzyme from bovine lens.
as §5

Read-outs that look alike come from different tables or passages of the source.

In general, inhibition refers to the share of the control response that was lost under treatment. Turning to `CCOC(=O)N(CC(=O)O)C(=O)c1cccc2c(C(F)(F)F)c(OC)ccc12` [Example 1, N-[[6-Methoxy-5-(trifluoromethyl)-1-naphthalenyl]carbonyl]-N-[(ethoxy)carbonyl]glycine], in the assay on rats fed galactose (57 mg/kg/day versus tolrestat at 9 mg/kg/day), the “results compared with tolrestat” value is on record as “comparable results”. For the same molecule, the “% Lowering dulcitol accumulation IN VIVO (%)N” value in assay [1] (57 mg/kg) amounted to 56%. For the same molecule, the “% Lowering dulcitol accumulation IN VIVO (%)N” value in assay [1] (97 mg/kg) came to 90%. Also, on aldose reductase, the inhibition at 10 µM worked out at 97%, the inhibition at 0.1 µM came to 47% and the inhibition at 1 µM came to 94%.

As for `COC(=O)N(CC(=O)O)C(=O)c1cccc2c(C(F)(F)F)c(OC)ccc12` [Example 2, N-[[6-Methoxy-5-(trifluoromethyl)-1-naphthalenyl]carbonyl]-N-[(methoxy)carbonyl]glycine], in assay [2], the “% Lowering dulcitol accumulation IN VIVO (%)L” value is on record as “N.S”. In the assay with rats fed galactose (48 mg/kg/day versus tolrestat at 9 mg/kg/day), the “results compared with tolrestat” value is listed as “comparable results”. For the same molecule, the “% Lowering dulcitol accumulation IN VIVO (%)N” value in assay [1] (48 mg/kg) stood at 70%. Also, at aldose reductase, the inhibition at 10 µM worked out at 98% and the inhibition at 0.1 µM was found to be 82%. For the same molecule, the inhibition at 1 µM at aldose reductase (10^-6 M) is 97%.

Source of the values: US4843062A, “N-acyl-N-napthoylglycines as aldose reductase inhibitors” (American Home Products Corporation, priority 1987, dated 1989).
